Earlier results as cited in patent US20240124437A1, “INJECTABLE LURASIDONE SUSPENSION AND PREPARATION METHOD THEREFOR” (Sichuan Kelun Pharmaceutical Research Institute Co., Ltd., priority 2021, published 2024).

Settings: oral tablets

- oral bioavailability: 9%-19%
SMILES: O=C1[C@@H]2[C@H]3CC[C@H](C3)[C@@H]2C(=O)N1C[C@@H]1CCCC[C@H]1CN1CCN(c2nsc3ccccc23)CC1 [lurasidone]
